Where two headings read alike, the source gives them in different places.
Columns and labels:
[1] = tested on: C8166 cells infected with HIV-1IIIB or TZM-bl cells infected with HIV-1YU-2; test: Combination antiviral activity assay (CompuSyn CI and DRI); assay type: cell-based
CYP1A2 = target: T1, CYP1A2 (Homo sapiens, UniProt P05177); test: Cytochrome P450 inhibition, human liver microsomes, phenacetin
T1 sequence (P05177 1-516): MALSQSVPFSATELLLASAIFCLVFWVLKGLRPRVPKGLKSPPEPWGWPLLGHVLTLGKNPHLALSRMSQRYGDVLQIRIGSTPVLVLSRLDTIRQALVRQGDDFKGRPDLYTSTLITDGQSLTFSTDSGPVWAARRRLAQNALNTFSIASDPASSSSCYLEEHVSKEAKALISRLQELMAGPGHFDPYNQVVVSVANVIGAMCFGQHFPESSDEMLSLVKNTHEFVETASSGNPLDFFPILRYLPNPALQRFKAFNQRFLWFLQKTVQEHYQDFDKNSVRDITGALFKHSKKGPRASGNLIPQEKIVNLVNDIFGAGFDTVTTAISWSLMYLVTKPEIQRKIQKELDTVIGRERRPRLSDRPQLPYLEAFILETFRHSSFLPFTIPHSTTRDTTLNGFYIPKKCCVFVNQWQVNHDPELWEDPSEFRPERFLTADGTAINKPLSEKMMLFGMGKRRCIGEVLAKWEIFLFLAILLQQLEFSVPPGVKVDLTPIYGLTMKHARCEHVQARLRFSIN

CYP2C9 = CYP2C9 (Homo sapiens, UniProt P11712); test: Cytochrome P450 inhibition, human liver microsomes, diclofenac
Sequence of CYP2C9 (P11712 whole entry): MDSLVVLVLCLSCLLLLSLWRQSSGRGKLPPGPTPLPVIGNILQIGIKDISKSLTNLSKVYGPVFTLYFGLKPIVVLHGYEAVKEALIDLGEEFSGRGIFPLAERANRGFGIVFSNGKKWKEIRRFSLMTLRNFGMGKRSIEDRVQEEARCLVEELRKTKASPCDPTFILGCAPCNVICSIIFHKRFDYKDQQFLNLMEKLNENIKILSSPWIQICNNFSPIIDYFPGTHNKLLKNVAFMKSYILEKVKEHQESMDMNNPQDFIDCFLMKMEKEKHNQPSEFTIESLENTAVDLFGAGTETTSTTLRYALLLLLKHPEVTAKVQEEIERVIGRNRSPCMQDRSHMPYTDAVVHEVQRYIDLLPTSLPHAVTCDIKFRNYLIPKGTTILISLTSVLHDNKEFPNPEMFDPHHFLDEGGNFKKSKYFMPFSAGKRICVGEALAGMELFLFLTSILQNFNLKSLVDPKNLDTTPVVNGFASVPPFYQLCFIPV

HIV-1IIIB [2] = test: Anti-HIV-1 activity, MTT protection of MT-4 cells; assay type: cell-based; details: Human immunodeficiency virus 1, MT4, MT-4, MTT
HIV-1IIIB [3] = test: Anti-HIV-1 activity, syncytia (CPE) count in C8166 cells; assay type: cell-based; details: Human immunodeficiency virus 1
HIV-1IIIB [4] = test: Anti-HIV-1 activity in the presence of human serum, p24 in C8166; details: Human immunodeficiency virus 1, C8166, HIV-1IIIB
CYP2C19 = CYP2C19 (Homo sapiens, UniProt P33261); test: Cytochrome P450 inhibition, human liver microsomes, S-mephenytoin
Sequence of CYP2C19 (P33261 whole entry): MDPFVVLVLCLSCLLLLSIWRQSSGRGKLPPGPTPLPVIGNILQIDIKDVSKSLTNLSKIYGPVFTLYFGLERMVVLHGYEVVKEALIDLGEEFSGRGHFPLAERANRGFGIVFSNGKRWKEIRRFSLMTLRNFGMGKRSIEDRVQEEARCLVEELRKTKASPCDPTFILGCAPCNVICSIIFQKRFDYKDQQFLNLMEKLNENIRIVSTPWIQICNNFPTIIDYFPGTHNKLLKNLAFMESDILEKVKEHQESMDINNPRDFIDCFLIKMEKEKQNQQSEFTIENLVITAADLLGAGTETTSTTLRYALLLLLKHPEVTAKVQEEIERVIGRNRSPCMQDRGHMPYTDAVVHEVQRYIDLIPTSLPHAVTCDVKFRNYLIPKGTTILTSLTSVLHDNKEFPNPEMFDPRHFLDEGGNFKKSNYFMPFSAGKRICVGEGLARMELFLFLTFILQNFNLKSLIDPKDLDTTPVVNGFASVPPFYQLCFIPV

[5] = Cytotoxicity, MTT assay, PBMCs; assay type: cell-based; details: human, PBMC, seven days, read-out: CC50 (Mean ± SD)
CYP2D6 = CYP2D6 (Homo sapiens, UniProt P10635); test: Cytochrome P450 inhibition, human liver microsomes, dextromethorphan
Sequence of CYP2D6 (P10635 whole entry): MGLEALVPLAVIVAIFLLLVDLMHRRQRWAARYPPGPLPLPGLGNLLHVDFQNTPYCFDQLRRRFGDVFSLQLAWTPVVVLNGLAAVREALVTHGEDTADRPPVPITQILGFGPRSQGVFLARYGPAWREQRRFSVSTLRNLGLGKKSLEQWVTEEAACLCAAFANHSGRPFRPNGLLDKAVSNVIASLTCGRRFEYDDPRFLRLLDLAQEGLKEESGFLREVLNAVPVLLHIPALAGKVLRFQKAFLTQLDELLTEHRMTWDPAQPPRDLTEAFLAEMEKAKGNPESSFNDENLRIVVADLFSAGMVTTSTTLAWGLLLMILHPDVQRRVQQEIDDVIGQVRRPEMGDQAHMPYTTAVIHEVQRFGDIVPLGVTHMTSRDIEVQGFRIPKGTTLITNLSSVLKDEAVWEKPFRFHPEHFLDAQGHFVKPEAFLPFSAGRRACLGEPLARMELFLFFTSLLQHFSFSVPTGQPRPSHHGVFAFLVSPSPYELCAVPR

CYP3A4M = CYP3A4M (Homo sapiens, UniProt P08684); test: Cytochrome P450 inhibition, human liver microsomes, midazolam
Sequence of CYP3A4M (P08684 whole entry): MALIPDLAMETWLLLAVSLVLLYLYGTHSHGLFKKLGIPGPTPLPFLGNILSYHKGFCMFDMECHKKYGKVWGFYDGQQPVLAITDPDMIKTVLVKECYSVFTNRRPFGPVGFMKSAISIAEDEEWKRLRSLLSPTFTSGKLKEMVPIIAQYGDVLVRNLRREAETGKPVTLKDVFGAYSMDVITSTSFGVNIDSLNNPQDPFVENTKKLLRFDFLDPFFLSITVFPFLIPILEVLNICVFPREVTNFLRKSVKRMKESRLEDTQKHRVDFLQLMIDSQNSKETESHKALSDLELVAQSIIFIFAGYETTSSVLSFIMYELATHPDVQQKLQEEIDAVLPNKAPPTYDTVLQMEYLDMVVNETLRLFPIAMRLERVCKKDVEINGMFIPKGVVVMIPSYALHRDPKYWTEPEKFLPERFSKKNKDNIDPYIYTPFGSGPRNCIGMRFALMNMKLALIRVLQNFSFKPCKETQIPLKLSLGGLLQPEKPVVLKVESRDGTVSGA

[6] = Cytotoxicity, MTT assay, MT-4 cells; assay type: cell-based; details: human, three days, read-out: CC50 (Mean ± SD)
[7] = tested on: HIV-1IIIB chronically infected H9 cells; test: HIV-1 replication in chronically infected H9/HIV-1IIIB cells, p24; assay type: cell-based
[8] = Cytotoxicity, MTT assay, C8166 cells; assay type: cell-based; details: human, three days, read-out: CC50 (Mean ± SD)
HIV-1Yu-2(G140S/Q148H) = test: microbe, parasite or virus in culture; assay type: cell-based; details: Human immunodeficiency virus 1, TZM-bl
[9] = Cytotoxicity, MTT assay, H9/HIV-1IIIB cells; assay type: cell-based; details: human, three days, read-out: CC50 (Mean ± SD)
[10] = single drug in combination K-5a2+AZT
[11] = single drug in combination K-5a2+MVC
[12] = single drug in combination K-5a2+ETR
[13] = single drug in combination K-5a2+DC521022
[14] = single drug in combination K-5a2+3TC
[15] = single drug in combination K-5a2+T-20
[16] = single drug in combination K-5a2+FTC
[17] = single drug in combination K-5a2+DTG
[18] = single drug in combination K-5a2+DRV
[19] = single drug in combination K-5a2+TDF

Cc1cn([C@H]2C[C@H](N=[N+]=[N-])[C@@H](CO)O2)c(=O)[nH]c1=O [AZT, zidovudine, reference compound]
DRI Value ED75 [1, 10]: 4.88 ± 2.30
DRI Value ED90 [1, 10]: 5.60 ± 2.33
DRI Value ED95 [1, 10]: 6.52 ± 3.94

maraviroc [MVC, reference compound]
DRI Value ED75 [1, 11]: 4.58 ± 0.50
DRI Value ED90 [1, 11]: 5.10 ± 0.83
DRI Value ED95 [1, 11]: 5.49 ± 1.09

Cc1cc(C#N)cc(C)c1Oc1nc(Nc2ccc(C#N)cc2)nc(N)c1Br [ETR, etravirine, reference compound]
DRI Value ED75 [1, 12]: 2.44 ± 0.52
DRI Value ED90 [1, 12]: 2.20 ± 0.58
DRI Value ED95 [1, 12]: 2.06 ± 0.61
IC50 (CYP1A2): 7.48 µM
IC50 (CYP2C9): 0.28 µM
EC50 (HIV-1IIIB [2]): 0.00615 ± 0.00176 µM
EC50 (HIV-1IIIB [3]): 0.00174 ± 0.00067 µM
EC50 (HIV-1IIIB [4]; C8166, p24, 20% human serum): 0.00656 ± 0.00489 µM
EC50 (HIV-1IIIB [4]; C8166, p24, 40% human serum): 0.00209 ± 0.00065 µM
IC50 (CYP2C19): 0.5 µM
CC50 at 7 days [5]: 34.5 ± 3.06 µM
IC50 (CYP2D6): 12 µM
IC50 (CYP3A4M): 41.3 µM
CC50 at 3 days [6]: 27.4 ± 5.46 µM
EC50 ([7]; Human immunodeficiency virus 1, HIV-1IIIB, H9/HIV-1IIIB chronically infected, p24): > 50 µM
Inhibition of HIV-1 replication in HIV-1IIIB chronically infected H9 cells ([7]; at a concentration of 50.00 µM): could not inhibit the replication
CC50 at 3 days [8]: > 50 µM
EC50 (HIV-1Yu-2(G140S/Q148H)): < 0.00013 µM
CC50 at 3 days [9]: 30.4 ± 1.59 µM

thioraviroc [DC521022, reference compound]
DRI Value ED75 [1, 13]: 5.41 ± 4.21
DRI Value ED90 [1, 13]: 7.32 ± 6.96
DRI Value ED95 [1, 13]: 9.08 ± 9.61

Nc1ccn([C@@H]2CS[C@H](CO)O2)c(=O)n1 [3TC, lamivudine, reference compound]
DRI Value ED75 [1, 14]: 2.83 ± 0.52
DRI Value ED90 [1, 14]: 3.28 ± 0.80
DRI Value ED95 [1, 14]: 3.64 ± 1.06

enfuvirtide [T-20, reference compound]
DRI Value ED75 [1, 15]: 2.05 ± 0.42
DRI Value ED90 [1, 15]: 2.37 ± 0.18
DRI Value ED95 [1, 15]: 2.69 ± 0.66

Nc1nc(=O)n([C@@H]2CS[C@H](CO)O2)cc1F [FTC, emtricitabine, reference compound]
DRI Value ED75 [1, 16]: 2.38 ± 0.10
DRI Value ED90 [1, 16]: 2.22 ± 0.23
DRI Value ED95 [1, 16]: 2.11 ± 0.32

C[C@@H]1CCO[C@H]2Cn3cc(C(=O)NCc4ccc(F)cc4F)c(=O)c(O)c3C(=O)N12 [DTG, dolutegravir, reference compound]
DRI Value ED75 [1, 17]: 2.37 ± 0.28
DRI Value ED90 [1, 17]: 2.50 ± 0.41
DRI Value ED95 [1, 17]: 2.61 ± 0.68

Cc1nnc(C(=O)NC(C)(C)c2nc(C(=O)NCc3ccc(F)cc3)c(O)c(=O)n2C)o1 [RAL, raltegravir, reference compound]
DRI Value ED75 [1]: 3.08 ± 1.11
DRI Value ED90 [1]: 3.50 ± 1.64
DRI Value ED95 [1]: 3.83 ± 2.07

CC(C)CN(C[C@@H](O)[C@H](Cc1ccccc1)NC(=O)O[C@H]1CO[C@H]2OCC[C@H]21)S(=O)(=O)c1ccc(N)cc1 [DRV, darunavir, reference compound]
DRI Value ED75 [1, 18]: 2.82 ± 0.21
DRI Value ED90 [1, 18]: 3.41 ± 0.86
DRI Value ED95 [1, 18]: 3.93 ± 1.44

C[C@H](Cn1cnc2c(N)ncnc21)OCP(=O)(O)O [TDF, tenofovir, reference compound]
DRI Value ED75 [1, 19]: 3.22 ± 0.71
DRI Value ED90 [1, 19]: 3.46 ± 0.35
DRI Value ED95 [1, 19]: 3.69 ± 0.66
